What follows are compounds tested on ECAC2 mRNA in Caco-2 cells.
Format: cell-based
Protocol: The mRNA Expression Assay of ECAC2 in Caco-2 Cells
The dispersed cells were plated in 48-well plate at a concentration of 6.3×10^4 cells/well and incubated for 4 days at 37° C. The culture medium (Dulbecco's Modified Eagle Medium (D-MEM) without NaHCO3 with 44 mM NaHCO3, 1 mM non-essential amino acids, and 2 mM L-glutamine, 90%; fetal bovine serum, 10%) was then replaced with the same medium containing various concentrations of LG190178 (the compound disclosed in WO00/10958 and the corresponding U.S. Pat. No. 6,218,430 B1) or the compounds of the present invention, and cells were cultured for 1 day at 37° C. The culture medium containing the compounds was changed twice per day.
Total RNA Isolation from Caco-2 Cell
Total RNA was isolated from Caco-2 cell following ABI PRISM™ 6100 Nucleic Acid PrepStation protocol from Applied Biosystems.
Real Time RT-PCR Assay of ECAC2
ECAC2 mRNA expression was determined using TaqMan One-step RT-PCR Master Mix Reagents Kit and PRISM7000 systems from Applied Biosystems.
Primer information and cycle conditions are 1)ECAC2, forward 5′-[…]-3′, reverse 5′-GTCCTCTGTCTGGMGATGA-3′, Taqman probe 5′-[…]-3′, 55 cycles, annealing temperature (Ta)=60° C.; 2)GAPDH, forward 5′-GMGGTGMGGTCGGAGTC-3′, reverse 5′-GMGATGGTGATGGGATTTC-3′, Taqman probe 5′-[…]-3′, 55 cycles, Ta=60° C. ECAC2 mRNA values were normalized for the expression of GAPDH mRNA within each sample.
Comparison of ECAC2 mRNA Value
The EC50 values of ECAC2 mRNA values were analyzed by Emax models. The ECAC2 mRNA ratio was calculated as the ratio of the EC50 value of the compounds to that of LG190178. ECAC2 is a channel-like transporter mediating intestinal calcium absorption. It is described in J Biol Chem. Aug. 6, 1999; 274(32):22739-46 for example.

Compound | ECaC-2 mRNA induction activity in Caco-2 cells [%]
CCC(CC)(c1ccc(/C=C/C2(O)CCCC2)c(C)c1)c1ccc(OCCCCC(=O)O)c(C)c1 [Example 86, 5-[4-(1-ethyl-1-{4-[(E)-2-(1-hydroxy-cyclopentyl)-vinyl]-3-methyl-phenyl}-propyl)-2-methyl-phenoxy]-pentanoic acid] | 289
CCC(CC)(c1ccc(/C=C/C(O)(C(F)(F)F)C(F)(F)F)c(C)c1)c1ccc(OC[C@@H](O)CO)c(C)c1 [Example 69, (S)-3-(4-{1-ethyl-1-[3-methyl-4-((E)-4,4,4-trifluoro-3-hydroxy-3-trifluoromethyl-but-1-enyl)-phenyl]-propyl}-2-methyl-phenoxy)-propane-1,2-diol] | >10000
CCC(CC)(c1ccc(C#CC(O)(C(F)(F)F)C(F)(F)F)c(C)c1)c1ccc(OC[C@H]2CCCC(=O)O2)c(C)c1 [Example 59, (R)-6-(4-{1-Ethyl-1-[3-methyl4-(4,4,4-trifluoro-3-hydroxy-3-trifluoromethyl-but-1-ynyl)-phenyl]-propyl}-2-methyl-phenoxymethyl)-tetrahydro-pyran-2-one] | 117
CCC(CC)(c1ccc(C#CCCCC(=O)O)c(C)c1)c1ccc(C#CC(O)(C(F)(F)F)C(F)(F)F)c(C)c1 [Example 192, 6-(4-{1-Ethyl-1-[3-methyl-4-(4,4,4-trifluoro-3-hydroxy-3-trifluoromethyl-but-1-ynyl)-phenyl]-propyl}-2-methyl-phenyl)-hex-5-ynoic acid] | 292
CCc1cc(C(CC)(CC)c2ccc(C(=O)N[C@@H](C)C(=O)O)s2)ccc1OCC(C)(O)C(C)(C)C (single isomer, unassigned) [Compound C, reference compound] | 34
CCC(O)(/C=C/c1ccc(C(CC)(CC)c2ccc(OC[C@@H](O)CCC(=O)O)cc2)cc1C)CC [Example 165, (S)-5-(4-{1-Ethyl-1-[4-((E)-3-ethyl-3-hydroxy-pent-1-enyl)-3-methyl-phenyl]-propyl}-phenoxy)4-hydroxy-pentanoic acid] | 2017
CCC(O)(/C=C/c1ccc(C(CC)(CC)c2ccc(OC[C@H]3CCCC(=O)O3)c(C)c2)cc1C)CC [Example 190, 6(R)-(4-{1-Ethyl-1-[4-((E)-3-ethyl-3-hydroxy-pent-1-enyl)-3-methyl-phenyl]-propyl}-2-methyl-phenoxymethyl)-tetrahydro-pyran-2-one] | 22
CCC(O)(/C=C/c1ccc(C(CC)(CC)c2ccc(OCC(=O)CCC(=O)O)c(C)c2)cc1C)CC [Example 198, (E)-5-(4-{1-Ethyl-1-[4-(3-ethyl-3-hydroxy-pent-1-enyl)-3-methyl-phenyl]-propyl}-2-methyl-phenoxy)-4-oxo-pentanoic acid] | 271
CCC(CC)(c1ccc(/C=C/C(O)(C(F)(F)F)C(F)(F)F)c(C)c1)c1ccc(OCC(CO)CO)c(C)c1 [Example 78, 2-(4-{1-ethyl-1-[3-methyl-4-((E)-4,4,4-trifluoro-3-hydroxy-3-trifluoromethyl-but-1-enyl)-phenyl]-propyl}-2-methyl-phenoxymethyl)-propane-1,3-diol] | 6659
CCC(O)(/C=C/c1ccc(C(CC)(CC)c2ccc(OC[C@H]3CCC(=O)O3)c(C)c2)cc1C)CC [Example 44, (R)-5-(4-{1-ethyl-1-[4-((E)-3-ethyl-3-hydroxy-pent-1-enyl)-3-methyl-phenyl]-propyl}-2-methyl-phenoxymethyl)-dihydro-furan-2-one] | 96
CCC(CC)(c1ccc(C#CC(O)(C(F)(F)F)C(F)(F)F)c(C)c1)c1ccc(OC[C@H](O)CCCO)c(C)c1 [Example 152, (R)-5-(4-{1-Ethyl-1-[3-methyl-4-(4,4,4-trifluoro-3-hydroxy-3-trifluoromethyl-but-1-ynyl)-phenyl]-propyl}-2-methyl-phenoxy)-pentane-1,4-diol] | 586
CCC(CC)(c1ccc(/C=C/C2(O)CCCC2)c(C)c1)c1ccc(OC[C@@H](O)CCC(=O)O)c(C)c1 [Example 35, (S)-5-[4-(1-ethyl-1-{4-[(E)-2-(1-hydroxy-cyclopentyl)-vinyl]-3-methyl-phenyl}-propyl)-2-methyl-phenoxy]-4-hydroxy-pentanoic acid] | 538
CCC(CC)(c1ccc(CCC(O)(C(F)(F)F)C(F)(F)F)c(C)c1)c1ccc(OC[C@@H](O)CCC(=O)O)c(C)c1 [Example 31, (S)-5-(4-{1-ethyl-1-[3-methyl-4-(4,4,4-trifluoro-3-hydroxy-3-trifluoromethyl-butyl)-phenyl]-propyl}-2-methyl-phenoxy)-4-hydroxy-pentanoic acid] | 161
CCC(CC)(c1ccc(/C=C/C(O)C(C)(C)C)c(C)c1)c1ccc(OC[C@@H](O)CO)c(C)c1 (stereo partly drawn) [Example 67, 3-(4-{1-ethyl-1-[4-((E)-3-hydroxy-4,4-dimethyl-pent-1-enyl)-3-methyl-phenyl]-propyl}-2-methyl-phenoxy)-propane--1,2(S)-diol] | 860
CCC(CC)(c1ccc(/C=C/C(O)(C(F)(F)F)C(F)(F)F)c(C)c1)c1ccc(OC[C@@H](O)CC(=O)O)c(C)c1 [Example 52, (S)4-(4-{1-ethyl-1-[3-methyl-4-((E)A4,4,4-trifluoro-3-hydroxy-3-trifluoromethyl-but-1-enyl)-phenyl]-propyl}-2-methyl-phenoxy)-3-hydroxy-butyric acid] | 1227
CCC(CC)(c1ccc(/C=C/C(O)(C(F)(F)F)C(F)(F)F)c(C)c1)c1ccc(OC[C@@H]2CCCO2)c(C)c1 [Example 157, (E)4-[4-(1-Ethyl-1-{3-methyl-4-[(S)-1-(tetrahydro-furan-2-yl)methoxy]-phenyl}-propyl)-2-methyl-phenyl]-1,1,1-trifluoro-2-trifluoromethyl-but-3-en-2-ol] | 1647
CCC(O)(/C=C/c1ccc(C(CC)(CC)c2ccc(OCC(=O)NCCN)c(C)c2)cc1C)CC [Example 195, (E)-N-(2-Amino-ethyl)-2-(4-{1-ethyl-1-[4-(3-ethyl-3-hydroxy-pent-1-enyl)-3-methyl-phenyl]-propyl}-2-methyl-phenoxy)-acetamide] | 135
CCC(CC)(c1ccc(/C=C/C2(O)CCCCC2)c(C)c1)c1ccc(OC[C@@H](O)CCC(=O)O)c(C)c1 [Example 37, (S)-5-[4-(1-ethyl-1-{4-[(E)-2-(1-hydroxy-cyclohexyl)-vinyl]-3-methyl-phenyl}-propyl)-2-methyl-phenoxy]-4-hydroxy-pentanoic acid] | 639
CCC(CC)(c1ccc(/C=C/C(O)(C(F)(F)F)C(F)(F)F)c(C)c1)c1ccc(OC[C@H](O)CCCC(=O)O)c(C)c1 [Example 62, (R)-6-(4-{1-Ethyl-1-[3-methyl-4-((E)-4,4,4-trifluoro-3-hydroxy-3-trifluoromethyl-but-1-enyl)-phenyl]-propyl}-2-methyl-phenoxy)-5-hydroxy-hexanoic acid] | 410
CCC(O)(/C=C/c1ccc(C(CC)(CC)c2cc(C)c(OC[C@@H](O)CCC(=O)O)c(C)c2)cc1C)CC [Example 167, (S)-5-(4-{1-Ethyl-1-[4-((E)-3-ethyl-3-hydroxy-pent-1-enyl)-3-methyl-phenyl]-propyl}-2,6-dimethyl-phenoxy)-4-hydroxy-pentanoic acid] | 323
CCC(O)(/C=C/c1ccc(C(CC)(CC)c2ccc(OC[C@@H](O)CCC(=O)O)c(C)c2)cc1C)CC [Example 1, (S)-5-(4-{1-ethyl-1-[4-((E)-3-ethyl-3-hydroxy-pent-1-enyl)-3-methyl-phenyl]-propyl}-2-methyl-phenoxy)-4-hydroxy-pentanoic acid] | 36
C=C1/C(=C\C=C2/CCC[C@]3(C)[C@@H]([C@H](C)CCCC(C)(C)O)CC[C@@H]23)C[C@@H](O)C[C@@H]1O [1,25(OH)2D3, reference compound] | 556
CCC(CC)(c1ccc(/C=C/C(O)(C(F)(F)F)C(F)(F)F)c(C)c1)c1ccc(OC[C@@H]2CCCC(=O)O2)c(C)c1 [Example 55, (S)-6-(4-{1-ethyl-1-[3-methyl-4-((E)-4,4,4-trifluoro-3-hydroxy-3-trifluoromethyl-but-1-enyl)-phenyl]-propyl}-2-methyl-phenoxymethyl)-tetrahydro-pyran-2-one] | 662
CCC(CC)(c1ccc(CCC(O)C(C)(C)C)c(C)c1)c1ccc(OC[C@@H](O)CCCC(=O)O)c(C)c1 (stereo partly drawn) [Example 186, 6-(4-{1-Ethyl-1-[4-(3-hydroxy-4,4-dimethyl-pentyl)-3-methyl-phenyl]-propyl}-2-methyl-phenoxy)-5(S)-hydroxy-hexanoic acid] | 57
